Where two headings read alike, the source gives them in different places.
Key:
Ovarian (MRI-H-207) line = assay type: in vivo, human; settings: for T/C % / toxic deaths: days of treatment 0.7
Excerpt: (§1) The xenograft experiments have been carried by Dr. H. H. Fiebig of the University of Freiburg [Lung-NSCLC (LXGF) line, Renal line, Breast line; See: H. H. Fiebig et al., Behring Inst. Mitt., 74 343] and by Dr. E. Boven of the Free University Hospital Amsterdam [Ovarian (MRI-H-207) line; See: E. Boven et al., Cancer Res., 45, 86 (1985) and E. Boven et al., Eur. J. Clin. Oncol., 21, 1253 (1985)].
Mice: C57B1 athymic (nu/nu) female mice, 8 to 10 weeks of age were used for s.c. bilateral implantation of tumour fragments 2 mm diameter.
Treatment: E.O. 9 was dissolved in saline at a concentration of 0.5 mg/ml prior to administration. Drug doses and schedules were derived from studies in experimental murine tumour systems and from orientation studies in non-tumour-bearing nude mice. Treatment was started i.v. when tumours measured 50-150 mm^3. After randomization a group of 6-7 tumour-bearing mice was treated and a group of 5-6 tumour-bearing mice served as control.
Evaluation of efficacy: Tumours were measured twice weekly in three dimensions. Efficacy was expressed as the mean of relative tumour volume in treated animals vs. that in control animals×100 (% T/C). The optimal value was calculated within 35 days after the last injection. Toxic death (dead mice within two weeks after the last injection) were excluded from the evaluation.
MRI-H-207: An undifferentiated adenocarcinoma kindly provided by Dr. A. E. Bogden, Worcester, Mass, with a doubling time of 3-5 days.

Lung-NSCLC (LXFG) line = experiment: Human tumour xenograft in nude mice: lung; assay type: in vivo; settings: i.v. days 14 and 21, 4 and 6 mg/kg
Excerpt: (§2) Based on the results obtained during the in vitro experiments indoloquinone E.O. 9 was selected for an extended in vivo study. The activity of this compound has been determined in four human tumour xenografts transplanted in nude mice.
as §1
The tumour was transplanted s.c. and E.O. 9 was administrated i.v. on days 14 and 21 after transplantation at a dose of 4 and 6 mg/kg.

Breast line = experiment: Human tumour xenograft in nude mice: breast; assay type: in vivo; settings: i.v. days 46 and 53, 4 and 6 mg/kg
Excerpt: as §2, §1
The tumour was transplanted s.c. and E.O. 9 was administrated i.v. on days 46 and 53 after transplantation at a dose of 4 and 6 mg/kg.

Renal line (RXF 423) = experiment: Human tumour xenograft in nude mice: renal; assay type: in vivo; settings: i.v. days 22 and 29, 4 and 6 mg/kg
Excerpt: as §2, §1
The tumour was transplanted s.c. and E.O. 9 was administrated i.v. on days 22 and 29 after transplantation at a dose of 4 and 6 mg/kg.

**Q.** For Cn1c(/C=C/CO)c(CO)c2c1C(=O)C=C(N1CC1)C2=O [E.O. 9, 5-Aziridino-3-hydroxymethyl-1-methyl-2-[1H-indole-4,7-dione]prop-β-en-α-ol], which T/C % (Ovarian (MRI-H-207) line; 5 mg/kg) is on record?
**A.** 3.8%

**Q.** What about the toxic deaths (Ovarian (MRI-H-207) line; 5 mg/kg) of the same compound?
**A.** 0/7

**Q.** What about the T/C % (Ovarian (MRI-H-207) line; 6 mg/kg) of the same compound?
**A.** 2.4%

**Q.** And the toxic deaths (Ovarian (MRI-H-207) line; 6 mg/kg)?
**A.** 1/7

**Q.** And the optimal growth inhibition (Ovarian (MRI-H-207) line; 5 and 6 mg/kg q8d×2)?
**A.** 98%

**Q.** And the optimal growth inhibition (Lung-NSCLC (LXFG) line)?
**A.** 42%

**Q.** What about the specific growth delay (Lung-NSCLC (LXFG) line) of the same compound?
**A.** 1.03

**Q.** And the optimal growth inhibition (Breast line)?
**A.** 51%

**Q.** What about the “growth inhibition” value (Renal line (RXF 423)) of the same compound?
**A.** No significant growth inhibition
